Values quoted from earlier work as cited in US20060247203A1, “Freeze-dried preparation containing methylcobalamin and process for producing the same” (EISAI CO., LTD., priority 2003, published 2006).

Test system: patients with amyotrophic lateral sclerosis
Conditions: ALS patients; methylcobalamin 15 to 50 mg/once daily via intramuscular injection

C/C1=C2/[N-][C@H]([C@H](CC(N)=O)[C@@]2(C)CCC(=O)NC[C@@H](C)OP(=O)([O-])O[C@H]2[C@@H](O)[C@@H](n3cnc4cc(C)c(C)cc43)O[C@@H]2CO)[C@]2(C)N=C(/C(C)=C3N=C(/C=C4N=C1[C@@H](CCC(N)=O)C\4(C)C)[C@@H](CCC(N)=O)[C@]\3(C)CC(N)=O)[C@@H](CCC(N)=O)[C@]2(C)CC(N)=O.[CH3-].[Co+3] [methylcobalamin]
magnitude of compound muscle action potential: significant increase
subjective muscle strength: dose-dependent improvement
